Assay results published in patent US20240294548A1, “TRICYCLIC SULTAMS AND SULFAMIDES AS ANTITUMOR AGENTS” (PELOTON THERAPEUTICS INC., priority 2021, published 2024).

What was measured:
[1] = target: T1, DCAF15 RBM39 ternary complex (Homo sapiens, UniProt Q14498+Q66K64, DEL276-383); assay: DCAF15 RBM39 complex formation assay (FRET); assay type: biochemical; details: FRET ratio, 20 nM DDB1DB/DCAF15, 50 nM RBM39 R1R2, overnight at 4° C.; read-out: DCAF15 RBM39 ternary complex EC50
T1 construct: Amino acids 150 to 331 of RBM39 were cloned into pGEX4T3; GST (from the pGEX4T3 vector, own knowledge) followed by a TEV cleavage site (N); made in house; host or cells: Sf9 baculovirus (DDB1ΔB/DCAF15); E. coli (RBM39 R1R2)
T1 sequence (Q66K64 with tags, fused parts or gaps DEL276-383): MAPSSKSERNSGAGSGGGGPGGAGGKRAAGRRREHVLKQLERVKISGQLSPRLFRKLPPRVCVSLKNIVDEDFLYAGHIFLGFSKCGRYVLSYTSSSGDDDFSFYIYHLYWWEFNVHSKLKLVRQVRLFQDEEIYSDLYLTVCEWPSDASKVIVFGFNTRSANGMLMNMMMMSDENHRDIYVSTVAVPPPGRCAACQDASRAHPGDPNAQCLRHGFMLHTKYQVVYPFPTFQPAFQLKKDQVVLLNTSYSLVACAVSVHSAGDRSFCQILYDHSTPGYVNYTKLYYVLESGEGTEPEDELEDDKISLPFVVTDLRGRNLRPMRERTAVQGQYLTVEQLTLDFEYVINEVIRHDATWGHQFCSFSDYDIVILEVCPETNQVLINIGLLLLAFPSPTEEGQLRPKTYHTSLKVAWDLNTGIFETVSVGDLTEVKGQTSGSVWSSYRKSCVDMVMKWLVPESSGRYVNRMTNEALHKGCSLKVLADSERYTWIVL
T1 sequence (Q14498 150-331, stated change not applied): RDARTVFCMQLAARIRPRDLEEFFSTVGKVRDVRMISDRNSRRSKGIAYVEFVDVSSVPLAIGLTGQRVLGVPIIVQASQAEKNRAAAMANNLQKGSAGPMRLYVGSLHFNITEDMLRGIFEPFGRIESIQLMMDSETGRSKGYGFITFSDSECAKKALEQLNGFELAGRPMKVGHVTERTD
How it was run: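 Mix of 20 nM DDB1DB/DCAF15, 50 nM RBM39 R1R2, 0.2 nM Eu-anti-6×His and 50 nM APC-anti-FLAG (25 mM HEPES pH 7.5, 100 mM NaCl). Compounds, 1 μM down in 3-fold steps over 14 points, kept overnight at 4 °C.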

[2] = target: T2, DCAF15 (DDA1-DDB1ΔB-DCAF15Δpro) (Homo sapiens, UniProt Q66K64, DEL276-383); assay: DCAF15 displacement assay (displacement FRET, probe PT7795); assay type: binding; details: displacement of PT7795 (300 nM), compound 0.01 to 100 μM, 18 hours incubation; read-out: DCAF15 displacement IC50
T2 construct: made in house; host or cells: Sf9 (Bac-to-Bac baculovirus)

[3] = tested on: HCT116 human colorectal carcinoma cells; assay: CellTiter-Glo assay (cell viability); assay type: cell-based; details: HCT-116, 72 h, HCT116 cells, 3 days, CellTiter-Glo luminescence, read-out: CTG IC50
Experimental: HCT116 human colorectal carcinoma cells were used in these experiments. HCT116 cells were obtained from ATCC. CellTiter-Glo® Luminescent Cell Viability Assay Reagent was obtained from Promega.
About 3,000 cells were seeded into 96-well plate with 100 μL of media (DMEM supplemented with 10% FBS, 100 units penicillin, and […] streptomycin per mL) the day before the experiment. For compound treatment, the master plate was prepared as follows: 100× compound stocks were prepared in a 96-well plate by 1 to 3 serial dilutions of 0.5 mM DMSO stocks. Each master plate contained serial dilution of 8 compounds, including the control compound E7820. […] of 100× compound stock was added to each well of the assay plate to give final concentrations of […]. Each concentration was tested in triplicate. After 3 days, cell viability was determined using CellTiter-Glo Luminescent Cell Viability Assay Reagent following the manufacturer's recommended protocol. Briefly, […] of CellTiter-Glo reagent was added to each well of the assay plate and the contents were mixed for 3 minutes at 600 rpm on a shaker (Thermomixer R). The plate was immediately placed in a plate reader (Synergy 2) and the luminescence signal (0.5 second per well integration time) was determined. IC50 values were calculated using Dotmatics software.

| EC50 [1] [nM] | IC50 [2] [nM] | IC50 [3] [nM] | Compound |
| --- | --- | --- | --- |
| 2.7 | 1050 | 246 | Cn1cc(CN2Cc3cc(Cl)c4c(Cl)c[nH]c4c3NS2(=O)=O)cn1 [Compound 43, 6,7-dichloro-3-((1-methyl-1H-pyrazol-4-yl)methyl)-1,3,4,9-tetrahydro-[1,2,6] thiadiazino[4,3-g]indole 2,2-dioxide] |
| 1.8 | 276 | 62.2 | O=S1(=O)Nc2c(cc(Cl)c3c(Cl)c[nH]c23)CN1CC1CCOCC1 [Compound 44, 6,7-dichloro-3-((tetrahydro-2H-pyran-4-yl)methyl)-1,3,4,9-tetrahydro-[1,2,6] thiadiazino[4,3-g]indole 2,2-dioxide] |
| 1.6 | 127 | 52.8 | CC(=O)N1CCC(CN2Cc3cc(Cl)c4c(Cl)c[nH]c4c3NS2(=O)=O)CC1 [Compound 45, 1-(4-((6,7-dichloro-2,2-dioxido-4,9-dihydro-[1,2,6]thiadiazino[4,3-g]indol-3(1H)-yl)methyl)piperidin-1-yl)ethan-1-one] |
| 1.6 | 294 | 278 | N#Cc1ccccc1CN1Cc2cc(Cl)c3c(Cl)c[nH]c3c2NS1(=O)=O [Compound 46, 2-((6,7-dichloro-2,2-dioxido-4,9-dihydro-[1,2,6]thiadiazino[4,3-g]indol-3(1H)-yl)methyl) benzonitrile] |
| 0.4 | 390 | 393 | CC(=O)N1CC(CN2Cc3cc(Cl)c4c(Cl)c[nH]c4c3NS2(=O)=O)C1 [Compound 47, 1-(3-((6,7-dichloro-2,2-dioxido-4,9-dihydro-[1,2,6]thiadiazino[4,3-g]indol-3(1H)-yl)methyl)azetidin-1-yl) ethan-1-one] |
| 0.6 | 623 | 259 | Cc1ccc(CN2Cc3cc(Cl)c4c(Cl)c[nH]c4c3NS2(=O)=O)cn1 [Compound 48, 6,7-dichloro-3-((6-methylpyridin-3-yl)methyl)-1,3,4,9-tetrahydro-[1,2,6] thiadiazino[4,3-g]indole 2,2-dioxide] |
| 0.7 | 8390 | 2250 | O=S1(=O)Nc2c(cc(Cl)c3c(Cl)c[nH]c23)CN1Cc1ccc(C(F)(F)F)nc1 [Compound 49, 6,7-dichloro-3-((6-(trifluoromethyl)pyridin-3-yl)methyl)-1,3,4,9-tetrahydro-[1,2,6] thiadiazino[4,3-g]indole 2,2-dioxide] |
| 1.1 | 5710 | 881 | N#Cc1ccc(CN2Cc3cc(Cl)c4c(Cl)c[nH]c4c3NS2(=O)=O)cc1 [Compound 50, 4-((6,7-dichloro-2,2-dioxido-4,9-dihydro-[1,2,6]thiadiazino[4,3-g]indol-3(1H)-yl)methyl) benzonitrile] |
| 1.5 | 4410 | 283 | N#Cc1cccc(CN2Cc3cc(Cl)c4c(Cl)c[nH]c4c3NS2(=O)=O)c1 [Compound 51, 3-((6,7-dichloro-2,2-dioxido-4,9-dihydro-[1,2,6]thiadiazino[4,3-g]indol-3(1H)-yl)methyl) benzonitrile] |
| 0.6 | 580 | 93.7 | O=S1(=O)Nc2c(cc(Cl)c3c(Cl)c[nH]c23)CN1Cc1ccncn1 [Compound 52, 6,7-dichloro-3-(pyrimidin-4-ylmethyl)-1,3,4,9-tetrahydro-[1,2,6] thiadiazino[4,3-g]indole 2,2-dioxide] |
| 3.4 | 4280 | 394 | O=S1(=O)Nc2c(cc(Cl)c3c(Cl)c[nH]c23)CN1Cc1ccc(C(F)F)nc1 [Compound 53, 6,7-dichloro-3-((6-(difluoromethyl)pyridin-3-yl)methyl)-1,3,4,9-tetrahydro-[1,2,6]thiadiazino [4,3-g]indole 2,2-dioxide] |
| 1.2 | 371 | 128 | O=S1(=O)Nc2c(cc(Cl)c3c(Cl)c[nH]c23)CN1Cc1cnccc1Cl [Compound 54, 6,7-dichloro-3-((4-chloropyridin-3-yl)methyl)-1,3,4,9-tetrahydro-[1,2,6] thiadiazino[4,3-g]indole 2,2-dioxide] |
| 1.7 | 174 | 108 | Cc1ccncc1CN1Cc2cc(Cl)c3c(Cl)c[nH]c3c2NS1(=O)=O [Compound 55, 6,7-dichloro-3-((4-methylpyridin-3-yl)methyl)-1,3,4,9-tetrahydro-[1,2,6] thiadiazino[4,3-g]indole 2,2-dioxide] |
| 2.6 | 1440 | 184 | O=S1(=O)Nc2c(cc(Cl)c3c(Cl)c[nH]c23)CN1Cc1cncc(Cl)c1 [Compound 56, 6,7-dichloro-3-((5-chloropyridin-3-yl)methyl)-1,3,4,9-tetrahydro-[1,2,6] thiadiazino[4,3-g]indole 2,2-dioxide] |
| 4 | 1000 | 525 | O=c1cccc(CN2Cc3cc(Cl)c4c(Cl)c[nH]c4c3NS2(=O)=O)[nH]1 [Compound 57, 6-((6,7-dichloro-2,2-dioxido-4,9-dihydro-[1,2,6]thiadiazino[4,3-g]indol-3(1H)-yl)methyl)pyridin-2(1H)-one] |
| 46.2 | 14900 | 5000 | N#Cc1c[nH]c2c3c(cc(Cl)c12)CNS(=O)(=O)N3 [Compound 58, 6-chloro-1,3,4,9-tetrahydro-[1,2,6]thiadiazino[4,3-g]indole-7-carbonitrile 2,2-dioxide] |
| 2 | 325 | 120 | O=S1(=O)Nc2c(cc(Cl)c3c(Cl)c[nH]c23)CN1Cc1cnccn1 [Compound 59, 6,7-dichloro-3-(pyrazin-2-ylmethyl)-1,3,4,9-tetrahydro-[1,2,6] thiadiazino[4,3-g]indole 2,2-dioxide] |
| 2.4 | 162 | 2840 | O=c1cc(CN2Cc3cc(Cl)c4c(Cl)c[nH]c4c3NS2(=O)=O)cc[nH]1 [Compound 60, 4-((6,7-dichloro-2,2-dioxido-4,9-dihydro-[1,2,6]thiadiazino[4,3-g]indol-3(1H)-yl)methyl)pyridin-2(1H)-one] |
| 1 | 328 | 351 | O=S1(=O)Nc2c(cc(Cl)c3c(Cl)c[nH]c23)CN1Cc1ccnc(Cl)c1 [Compound 63, 6,7-dichloro-3-((2-chloropyridin-4-yl)methyl)-1,3,4,9-tetrahydro-[1,2,6] thiadiazino[4,3-g]indole 2,2-dioxide] |
| 10 | 4560 | 5000 | COCCN1Cc2cc(Cl)c3c(Cl)n[nH]c3c2NS1(=O)=O [Compound 64, 6,7-dichloro-3-(2-methoxyethyl)-1,3,4,9-tetrahydro-[1,2,6]thiadiazino[4,3-g]indazole 2,2-dioxide] |
| 1.9 | 934 | 493 | Cn1cc(CN2Cc3cc(Cl)c4c(Cl)c[nH]c4c3NS2(=O)=O)ccc1=O [Compound 65, 5-((6,7-dichloro-2,2-dioxido-4,9-dihydro-[1,2,6]thiadiazino[4,3-g]indol-3(1H)-yl)methyl)-1-methylpyridin-2(1H)-one] |
| 108 | ≥ 100000 | 5000 | CC1(C)Cc2cc(Cl)c3c(Cl)c[nH]c3c2NS1(=O)=O [Compound 66, 6,7-dichloro-3,3-dimethyl-1,3,4,9-tetrahydro-[1,2]thiazino[4,3-g]indole 2,2-dioxide] |
| 2 | 452 | 320 | O=S1(=O)Nc2c(cc(Cl)c3c(Cl)c[nH]c23)CN1Cc1ccnnc1 [Compound 67, 6,7-dichloro-3-(pyridazin-4-ylmethyl)-1,3,4,9-tetrahydro-[1,2,6] thiadiazino[4,3-g]indole 2,2-dioxide] |
| 2.3 | 630 | 205 | COCCCN1Cc2cc(Cl)c3c(Cl)c[nH]c3c2NS1(=O)=O [Compound 68, 6,7-dichloro-3-(3-methoxypropyl)-1,3,4,9-tetrahydro-[1,2,6] thiadiazino[4,3-g]indole 2,2-dioxide] |
| 3.9 | 7560 | 1200 | O=S1(=O)Nc2c(cc(Cl)c3c(Cl)c[nH]c23)CN1Cc1ccc(F)cc1 [Compound 69, 6,7-dichloro-3-(4-fluorobenzyl)-1,3,4,9-tetrahydro-[1,2,6] thiadiazino[4,3-g]indole 2,2-dioxide] |
